Laboratory results taken from PMC8597055, “Exploration of Pyrazolo[1,5‐a]pyrimidines as Membrane‐Bound Pyrophosphatase Inhibitors” (Chemmedchem, 2021).
Values joined by “and” are separate entries in the source; they are usually repeats but may differ in a detail not shown here. Identical values can stand only once. Like-named read-outs stand apart in the source and are kept apart here.

Tests used:
[1] = target: T1, Thermotoga maritima mPPase (TmPPase) (Thermotoga maritima, UniProt Q9S5X0); assay: TmPPase inhibition assay (96-well); assay type: biochemical
Description: We started from the previously identified 5‐arylisoxazole‐3‐carboxylate core present in 2–5 (Figure 1, highlighted in blue). Using KNIME,[30] we did a substructure search for commercial analogues in the ZINC12 database[31] […] Therefore, we manually picked compounds from a diverse collection provided by a single vendor (Ambinter, 174 matches for the substructure query). Out of the search results, we selected fifteen isoxazoles for testing in vitro. For all compounds in this manuscript, we tested activity using a 96‐well based assay that detects the inhibition of TmPPase.[22, 23, 24]
(§1) All commercially obtained compounds had purities >90 % as specified by the vendor. Synthesized compounds were >95 % pure as determined by LC–MS and characterized by HRMS. The inhibition assay was carried out with purified TmPPase as previously reported.[22, 23, 24] The best hits 17 a, 19 a, and 20 a, were validated using eight compound concentrations in triplicate. Further hit validation was done against the purified mPPase from P. falciparum (PfPPase‐VP1) expressed in baculovirus‐infected insect cells (expression, purification and further enzyme analysis will be described in more detail elsewhere). 4 μL of the purified PfPPase‐VP1 (2.0 mg/mL) was reactivated in 96 μL of reactivation buffer, i. e. 20 mM 2‐(N‐morpholino)ethanesulfonic acid (MES) pH 6.5, 3.5 % (v/v) glycerol, 2 mM dithiothreitol (DTT) and 12 mg/mL L‐α‐phosphatidylcholine from soybean. For each tube strip, 3 μL of the reactivated PfPPase‐VP1 was added into 12 μL of reaction buffer (200 mM Tris‐Cl pH 8.0, 8.0 mM MgCl2, 333 mM KCl, 67 mM NaCl) and 25 μL of inhibitor solution. The reaction mixtures were incubated at 50 °C for 5 min and the assay was started with the addition of 10 μL of 2 mM sodium pyrophosphate and further incubation at 50 °C for 45 min. The reaction termination and colour development were done as earlier described.[22, 23, 24]
6 IC50 plots from the TmPPase inhibition assay
The blue and black curves refer to compounds presented already in the main article and only shown in the Supporting Information, respectively. IC50, half maximal inhibitory concentration; CI95%, half maximal inhibitory concentration expressed as a 95% confidence interval (given in square brackets); […]
IC50 determinations were done using R 3.6.1[2] and the n-parameter logistic regression (nplr) package[3] version 0.1.7. In this package, the weighted nplr, given x (compound concentrations) and y values (activity) is calculated using Richard’s equation (eq 1) where B and T are the bottom and top asymptotes, respectively; b and xmid are the Hill slope and the x coordinate at inflexion point, respectively; and s is an asymmetric coefficient. The model parameters were simultaneously optimized using non-linear minimization, using a sum of squared errors.[4] The standard error of the model, defined as the squared error on the fitted values, is used to estimate a confidence interval at 95% on the predicted IC50 values.

[2] = target: purified mPPase from P. falciparum (PfPPase-VP1) (Plasmodium falciparum, UniProt Q8IKR1); assay: PfPPase-VP1 inhibition assay; assay type: biochemical; settings: purified PfPPase-VP1, 50 °C, three replicates; read-out: IC50
Protocol: Further hit validation was done against the purified mPPase from P. falciparum (PfPPase‐VP1) expressed in baculovirus‐infected insect cells. […] Overall, these compounds have higher IC50 values for PfPPase‐VP1 than for TmPPase.
as §1

[3] = test system: Plasmodium falciparum parasite strain 3D7; assay: P. falciparum survival (growth) assay in erythrocyte culture, SYBR Green I; assay type: cell-based; settings: 72 h, strain 3D7 in human erythrocytes
Protocol: Plasmodium falciparum parasite strain 3D7 was used for testing the antiplasmodial activity of the test compounds. The parasite was maintained in culture as described previously.[37] Briefly, parasites were cultured in O+ human erythrocytes at 5 % haematocrit in RPMI‐1640 medium supplemented with 0.5 % Albumax II (Gibco, Carlsbad, CA, USA), 200 μM hypoxanthine (Sigma, St. Louis, MO, USA) and 20 μg/mL gentamycin (Gibco). Parasites were synchronized with the sorbitol method as described.[38] Test compounds were dissolved in DMSO to make a stock solution of 10 mM or 50 mM. Two‐fold serial dilutions of the test compounds were made in the culture medium to cover either the range of 100 μM–100 nM or 400 μM–390 nM. 50 μL of each dilution were mixed in 96‐well plate with 150 μL of 2 % haematocrit of 0.5 % parasitemia (ring stage). Compound dilutions were also mixed with 150 μL of 2 % haematocrit of uninfected erythrocytes to serve as baselines for the activity of the coloured compounds. DMSO concentration in the highest compound concentration was 0.8 %. After 72 h incubation at 37 °C, the parasite growth was quantified using fluorescent SYBR Green I®‐based assay as described.[39] The half‐maximal inhibitory concentration (IC50) of the test compounds was assessed using the non‐linear regression fit model in Prism 7 (GraphPad Software, San Diego, CA, USA). The potent anti‐malarial drug, artemisinin, was used in parallel as a positive control. Each concentration of the test compounds was tested in duplicate and the assay was repeated three times. The mean and standard deviation of the three repeats were used to calculate the IC50.

[4] = Colloidal aggregation by nephelometry under TmPPase assay conditions; assay type: physicochemical
Protocol: In order to rule out a cause of false positives, colloidal aggregation in the TmPPase model assay was evaluated for compounds 17 a, 19 a and 20 a at six concentrations (100 μM, 50 μM, 20 μM, 10 μM, 1 μM, and 0.1 μM) using the assay conditions (Figure S3).
3 Aggregation data for 17a, 19a and 20a (Figure S3)
Potential colloidal aggregation in the TmPPase model system was studied by nephelometric methods using Nepheloskan Ascent® (Labsystems, Finland). The original assay conditions were simulated, and the light scattering of potential aggregates in the mixture was studied at six concentrations (100 µM, 50 µM, 20 µM, 10 µM, 1 µM and 0.1 µM). Aggregation of the blank and compounds 17a, 19a and 20a was measured as quadruplicates from one independent experiment at three different voltages (300 V, 400 V and 500 V) at room temperature. […]
values at 10 µM, 1 µM and 0.1 µM were similar to those observed by the blank, indicating merely […]
Figure S3. Aggregation data for compounds 17a, 19a and 20a. The data, measured in relative nephelometric units (RNU), is shown as the mean ± SD and normalized to the blank.
(1 picture or pasted object on this page, not shown here)

[5] = target: T1, Thermotoga maritima mPPase (TmPPase); parameters: method as in PMID 31131322, PMID 32292570; settings: previously reported inhibitors, read-out: IC50 [CI95%]; cited from earlier work
[6] = test system: Plasmodium falciparum parasite strain 3D7; parameters: method as in PMID 32292570; settings: cited from earlier work

T1 sequence (Q9S5X0 whole entry): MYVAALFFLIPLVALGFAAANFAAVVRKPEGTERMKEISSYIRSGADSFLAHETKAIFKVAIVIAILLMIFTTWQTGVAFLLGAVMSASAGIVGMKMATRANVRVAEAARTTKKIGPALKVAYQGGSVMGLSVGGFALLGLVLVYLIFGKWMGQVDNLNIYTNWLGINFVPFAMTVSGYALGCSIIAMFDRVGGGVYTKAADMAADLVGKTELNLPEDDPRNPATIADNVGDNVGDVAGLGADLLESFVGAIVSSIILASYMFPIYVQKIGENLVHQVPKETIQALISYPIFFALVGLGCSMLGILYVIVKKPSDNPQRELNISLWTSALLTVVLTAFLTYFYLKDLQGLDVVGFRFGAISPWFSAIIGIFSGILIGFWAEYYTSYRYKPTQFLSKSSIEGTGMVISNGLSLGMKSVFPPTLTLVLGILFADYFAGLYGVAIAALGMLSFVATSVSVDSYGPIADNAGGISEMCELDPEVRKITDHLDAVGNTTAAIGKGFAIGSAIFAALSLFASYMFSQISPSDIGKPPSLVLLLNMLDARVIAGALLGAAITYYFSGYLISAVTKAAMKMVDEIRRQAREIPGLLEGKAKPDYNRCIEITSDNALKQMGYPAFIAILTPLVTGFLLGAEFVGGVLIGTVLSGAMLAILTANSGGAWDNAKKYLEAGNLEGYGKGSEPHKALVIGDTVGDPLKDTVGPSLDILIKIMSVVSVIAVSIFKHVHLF
Sequence of purified mPPase from P. falciparum (PfPPase-VP1) (Q8IKR1 entry or part of it): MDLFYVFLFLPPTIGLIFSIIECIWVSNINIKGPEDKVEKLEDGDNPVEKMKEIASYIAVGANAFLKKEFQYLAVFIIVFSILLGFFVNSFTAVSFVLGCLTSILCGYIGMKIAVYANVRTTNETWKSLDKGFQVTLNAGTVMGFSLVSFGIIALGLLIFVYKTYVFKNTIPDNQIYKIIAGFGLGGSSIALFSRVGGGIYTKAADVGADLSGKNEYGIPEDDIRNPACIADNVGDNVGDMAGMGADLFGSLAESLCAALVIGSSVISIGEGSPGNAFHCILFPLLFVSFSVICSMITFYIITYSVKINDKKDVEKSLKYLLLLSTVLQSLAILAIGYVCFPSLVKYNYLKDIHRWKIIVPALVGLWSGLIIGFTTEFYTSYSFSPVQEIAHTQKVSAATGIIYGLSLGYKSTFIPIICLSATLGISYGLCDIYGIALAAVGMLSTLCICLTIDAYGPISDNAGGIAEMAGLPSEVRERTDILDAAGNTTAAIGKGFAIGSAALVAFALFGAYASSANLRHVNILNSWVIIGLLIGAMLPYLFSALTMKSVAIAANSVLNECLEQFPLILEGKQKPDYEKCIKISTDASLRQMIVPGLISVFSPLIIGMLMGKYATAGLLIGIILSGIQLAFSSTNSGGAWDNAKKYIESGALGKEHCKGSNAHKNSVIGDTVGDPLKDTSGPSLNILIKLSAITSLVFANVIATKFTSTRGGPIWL

Row | SMILES | IC50 ([1]; TmPPase inhibition, NA = IC50 not assigned, read-out: IC50 [CI95%]) [µM] | fold loss in activity compared to 2 ([1]; TmPPase, 17 a versus 2) [fold] | IC50 [2] | IC50 ([3]; Plasmodium falciparum, 3D7, Erythrocyte) [µM] | IC50 [3] [µM] | concentration of aggregate formation ([4]; TmPPase assay conditions, six concentrations 100–0.1 μM) | colloidal aggregation ([4]; at 10 µM, 1 µM and 0.1 µM) | colloidal aggregation ([4]; at 100 µM, 50 µM and 20 µM) | IC50 [5] [µM] | activity ex vivo against P. falciparum [6]
1 | Cc1cc(C)cc(-c2cc(C(=O)Oc3ccccc3Br)nc3cc(Br)nn23)c1 [17 a, 2‐Bromophenyl 2‐bromo‐7‐(3,5‐dimethylphenyl)pyrazolo[1,5‐a]pyrimidine‐5‐carboxylate] | 14 | 2 | 58 µM and 57.7 µM | 31 | 30.6 | above 20 μM | negligible/no detectable aggregation | aggregate formation | – | –
2 | Cc1cc(C)cc(-c2cc(C(=O)Oc3ccccc3Br)no2)c1 [compound 2] | – | – | – | – | – | – | – | – | 6.9 | retained activity
